Source: publication PMC7827406, “Structure–Activity Relationship (SAR) Study of Spautin-1 to Entail the Discovery of Novel NEK4 Inhibitors” (International Journal of Molecular Sciences, 2021)
Like-named read-outs stand apart in the source and are kept apart here.

Key:
Assay in all cases: biochemical
Set-up in all cases: Eurofins KinaseProfiler full panel at Km ATP, residual kinase activity (%) relative to DMSO
TSSK3(h) = target: T1, TSSK3(h) (Homo sapiens, UniProt Q96PN8)
T1 sequence (Q96PN8 1-268): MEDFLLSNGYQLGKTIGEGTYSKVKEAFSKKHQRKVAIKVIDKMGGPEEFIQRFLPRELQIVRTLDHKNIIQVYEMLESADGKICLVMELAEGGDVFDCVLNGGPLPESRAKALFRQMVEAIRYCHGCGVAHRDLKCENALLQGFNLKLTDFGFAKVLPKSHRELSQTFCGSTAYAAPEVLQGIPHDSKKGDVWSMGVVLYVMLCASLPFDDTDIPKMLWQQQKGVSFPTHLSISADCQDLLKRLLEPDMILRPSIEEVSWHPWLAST
Procedure, shortened: (§1)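 Two 10 µM single-concentration screens were run: a competition-binding screen, in which DNA-tagged kinase bound to immobilized ligands was quantified by qPCR, and a radiometric activity panel at Km ATP. Each is expressed as residual kinase activity (%).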

Mnk2(h) = target: T2, Mnk2(h) (Homo sapiens, UniProt Q9HBH9)
T2 construct: gene MKNK2
T2 sequence (Q9HBH9 whole entry): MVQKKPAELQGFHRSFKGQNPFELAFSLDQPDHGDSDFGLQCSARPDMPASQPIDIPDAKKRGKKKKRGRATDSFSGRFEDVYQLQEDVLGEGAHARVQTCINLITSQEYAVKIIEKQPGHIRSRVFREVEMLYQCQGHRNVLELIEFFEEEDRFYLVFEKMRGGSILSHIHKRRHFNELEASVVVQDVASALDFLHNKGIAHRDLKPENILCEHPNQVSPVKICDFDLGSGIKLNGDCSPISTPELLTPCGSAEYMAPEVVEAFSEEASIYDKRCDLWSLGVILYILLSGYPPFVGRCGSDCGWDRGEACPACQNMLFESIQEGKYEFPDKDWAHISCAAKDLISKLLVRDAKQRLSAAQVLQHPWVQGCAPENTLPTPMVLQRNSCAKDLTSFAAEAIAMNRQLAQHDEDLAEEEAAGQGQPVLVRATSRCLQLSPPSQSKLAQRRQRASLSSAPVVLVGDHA
Procedure, shortened: as §1

PKCθ(h) = target: T3, PKCθ(h) (Homo sapiens, UniProt Q04759)
T3 construct: gene PRKCQ
Procedure, shortened: as §1

WNK2(h) = WNK2(h) (Homo sapiens, UniProt Q9Y3S1)
WNK2(h), sequence (Q9Y3S1 whole entry): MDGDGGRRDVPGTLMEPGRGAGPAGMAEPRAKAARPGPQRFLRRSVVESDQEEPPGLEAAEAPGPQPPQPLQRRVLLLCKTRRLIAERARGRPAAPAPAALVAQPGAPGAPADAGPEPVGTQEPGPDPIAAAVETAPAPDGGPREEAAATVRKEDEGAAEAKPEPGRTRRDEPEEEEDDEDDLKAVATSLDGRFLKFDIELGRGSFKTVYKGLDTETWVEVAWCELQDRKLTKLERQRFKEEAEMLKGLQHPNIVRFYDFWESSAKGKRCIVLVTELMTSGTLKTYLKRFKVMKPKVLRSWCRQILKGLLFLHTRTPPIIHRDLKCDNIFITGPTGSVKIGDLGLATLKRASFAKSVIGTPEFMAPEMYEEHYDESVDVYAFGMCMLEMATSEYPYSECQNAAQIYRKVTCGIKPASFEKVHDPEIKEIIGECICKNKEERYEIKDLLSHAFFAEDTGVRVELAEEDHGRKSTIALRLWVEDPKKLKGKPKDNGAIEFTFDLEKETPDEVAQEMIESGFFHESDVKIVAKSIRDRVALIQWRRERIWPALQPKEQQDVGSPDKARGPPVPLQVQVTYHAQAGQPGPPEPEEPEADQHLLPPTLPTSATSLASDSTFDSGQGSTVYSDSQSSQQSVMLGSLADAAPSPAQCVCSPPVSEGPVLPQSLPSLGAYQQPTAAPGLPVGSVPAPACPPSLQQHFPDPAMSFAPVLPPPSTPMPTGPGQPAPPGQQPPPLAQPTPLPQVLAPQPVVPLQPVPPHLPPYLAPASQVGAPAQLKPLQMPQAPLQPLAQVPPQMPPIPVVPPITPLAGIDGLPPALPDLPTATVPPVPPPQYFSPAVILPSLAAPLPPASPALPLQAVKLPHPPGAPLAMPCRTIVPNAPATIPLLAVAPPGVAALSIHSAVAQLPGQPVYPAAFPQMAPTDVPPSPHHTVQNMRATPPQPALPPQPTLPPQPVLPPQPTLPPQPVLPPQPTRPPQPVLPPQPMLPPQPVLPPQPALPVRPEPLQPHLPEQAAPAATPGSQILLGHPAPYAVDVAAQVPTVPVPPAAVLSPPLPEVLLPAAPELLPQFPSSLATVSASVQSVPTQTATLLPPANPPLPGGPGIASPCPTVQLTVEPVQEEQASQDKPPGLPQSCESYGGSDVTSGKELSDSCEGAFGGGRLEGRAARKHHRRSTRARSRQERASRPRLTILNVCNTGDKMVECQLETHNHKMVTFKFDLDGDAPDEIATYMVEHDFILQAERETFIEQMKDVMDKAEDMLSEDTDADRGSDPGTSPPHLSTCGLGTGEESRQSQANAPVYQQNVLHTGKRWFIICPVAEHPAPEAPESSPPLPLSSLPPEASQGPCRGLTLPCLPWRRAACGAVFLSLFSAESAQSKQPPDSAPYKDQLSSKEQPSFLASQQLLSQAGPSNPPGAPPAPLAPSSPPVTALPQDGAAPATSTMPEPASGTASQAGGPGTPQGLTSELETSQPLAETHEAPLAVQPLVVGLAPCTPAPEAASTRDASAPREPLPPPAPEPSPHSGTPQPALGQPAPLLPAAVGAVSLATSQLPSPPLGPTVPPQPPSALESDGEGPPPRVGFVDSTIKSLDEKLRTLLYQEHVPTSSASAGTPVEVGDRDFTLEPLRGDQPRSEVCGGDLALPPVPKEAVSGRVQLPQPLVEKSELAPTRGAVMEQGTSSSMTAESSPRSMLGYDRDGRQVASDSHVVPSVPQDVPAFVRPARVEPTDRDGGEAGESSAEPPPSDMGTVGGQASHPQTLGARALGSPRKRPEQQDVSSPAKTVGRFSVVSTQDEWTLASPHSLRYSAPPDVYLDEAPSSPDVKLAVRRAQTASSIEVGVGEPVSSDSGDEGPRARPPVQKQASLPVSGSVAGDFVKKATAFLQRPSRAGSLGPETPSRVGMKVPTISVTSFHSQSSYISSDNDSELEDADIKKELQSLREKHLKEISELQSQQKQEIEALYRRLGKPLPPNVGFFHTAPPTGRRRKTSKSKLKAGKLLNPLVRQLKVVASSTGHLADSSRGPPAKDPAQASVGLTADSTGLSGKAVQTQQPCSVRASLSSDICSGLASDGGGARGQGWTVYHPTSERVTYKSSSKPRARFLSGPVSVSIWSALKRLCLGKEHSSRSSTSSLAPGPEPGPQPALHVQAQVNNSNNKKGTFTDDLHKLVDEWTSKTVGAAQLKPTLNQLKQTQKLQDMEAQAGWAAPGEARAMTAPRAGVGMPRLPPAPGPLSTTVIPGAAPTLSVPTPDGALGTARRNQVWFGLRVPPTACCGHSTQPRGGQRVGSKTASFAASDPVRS
Procedure, shortened: as §1

SIK(h) = target: T4, SIK(h) (Homo sapiens, UniProt P57059)
T4 construct: gene SIK1
T4 sequence (P57059 whole entry): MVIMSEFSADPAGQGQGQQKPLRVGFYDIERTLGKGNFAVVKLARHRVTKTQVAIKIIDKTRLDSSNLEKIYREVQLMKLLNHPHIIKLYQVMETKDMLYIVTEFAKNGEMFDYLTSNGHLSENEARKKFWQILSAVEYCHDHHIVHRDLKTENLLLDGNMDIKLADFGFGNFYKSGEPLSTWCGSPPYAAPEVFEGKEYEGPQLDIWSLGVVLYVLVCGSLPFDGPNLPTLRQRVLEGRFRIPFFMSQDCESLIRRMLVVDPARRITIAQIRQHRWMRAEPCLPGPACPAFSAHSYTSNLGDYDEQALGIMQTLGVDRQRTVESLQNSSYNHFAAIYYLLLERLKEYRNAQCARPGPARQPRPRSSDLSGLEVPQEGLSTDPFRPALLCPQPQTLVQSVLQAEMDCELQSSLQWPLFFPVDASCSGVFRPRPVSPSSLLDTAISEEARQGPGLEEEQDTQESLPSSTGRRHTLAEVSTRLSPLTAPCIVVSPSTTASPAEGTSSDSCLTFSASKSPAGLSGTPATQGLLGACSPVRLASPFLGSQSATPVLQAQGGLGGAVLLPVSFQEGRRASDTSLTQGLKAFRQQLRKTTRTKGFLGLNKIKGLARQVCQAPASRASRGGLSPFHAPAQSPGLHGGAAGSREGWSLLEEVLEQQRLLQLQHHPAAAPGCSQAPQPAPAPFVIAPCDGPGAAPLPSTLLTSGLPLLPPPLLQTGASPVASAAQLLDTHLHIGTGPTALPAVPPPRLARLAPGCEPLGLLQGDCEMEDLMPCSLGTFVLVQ
Procedure, shortened: as §1

TLK2(h) = TLK2(h) (Homo sapiens, UniProt Q86UE8)
Procedure, shortened: as §1

ICK(h) = target: T5, ICK(h) (Homo sapiens, UniProt Q9UPZ9)
T5 construct: gene CILK1
T5 sequence (Q9UPZ9 1-632): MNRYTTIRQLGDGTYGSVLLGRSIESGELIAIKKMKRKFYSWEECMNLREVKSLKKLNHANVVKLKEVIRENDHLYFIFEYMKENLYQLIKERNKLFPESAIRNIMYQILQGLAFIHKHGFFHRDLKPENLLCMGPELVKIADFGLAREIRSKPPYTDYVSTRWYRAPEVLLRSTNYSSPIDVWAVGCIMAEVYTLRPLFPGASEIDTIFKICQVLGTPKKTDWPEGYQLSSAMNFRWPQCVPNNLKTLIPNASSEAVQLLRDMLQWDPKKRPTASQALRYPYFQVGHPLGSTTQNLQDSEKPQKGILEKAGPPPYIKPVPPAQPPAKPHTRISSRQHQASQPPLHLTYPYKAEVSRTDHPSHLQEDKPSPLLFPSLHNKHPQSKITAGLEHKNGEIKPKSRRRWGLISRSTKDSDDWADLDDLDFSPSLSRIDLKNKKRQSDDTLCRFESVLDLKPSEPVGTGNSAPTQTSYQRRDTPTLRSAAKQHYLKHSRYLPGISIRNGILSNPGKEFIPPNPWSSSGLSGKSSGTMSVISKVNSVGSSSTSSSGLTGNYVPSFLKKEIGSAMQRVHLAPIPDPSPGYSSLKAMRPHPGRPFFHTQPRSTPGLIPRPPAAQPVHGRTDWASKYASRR
Procedure, shortened: as §1

WNK4(h) = WNK4(h) (Homo sapiens, UniProt Q96J92)
Procedure, shortened: as §1

IRR(h) = target: T6, IRR(h) (Homo sapiens, UniProt P14616)
T6 construct: gene INSRR
Procedure, shortened: as §1

CDK12/cyclinK(h) = CDK12/cyclinK(h) (Homo sapiens, UniProt Q9NYV4)
Procedure, shortened: as §1

Lck(h) activated = Lck(h) activated (Homo sapiens, UniProt P06239)
Lck(h) activated, sequence (P06239 whole entry): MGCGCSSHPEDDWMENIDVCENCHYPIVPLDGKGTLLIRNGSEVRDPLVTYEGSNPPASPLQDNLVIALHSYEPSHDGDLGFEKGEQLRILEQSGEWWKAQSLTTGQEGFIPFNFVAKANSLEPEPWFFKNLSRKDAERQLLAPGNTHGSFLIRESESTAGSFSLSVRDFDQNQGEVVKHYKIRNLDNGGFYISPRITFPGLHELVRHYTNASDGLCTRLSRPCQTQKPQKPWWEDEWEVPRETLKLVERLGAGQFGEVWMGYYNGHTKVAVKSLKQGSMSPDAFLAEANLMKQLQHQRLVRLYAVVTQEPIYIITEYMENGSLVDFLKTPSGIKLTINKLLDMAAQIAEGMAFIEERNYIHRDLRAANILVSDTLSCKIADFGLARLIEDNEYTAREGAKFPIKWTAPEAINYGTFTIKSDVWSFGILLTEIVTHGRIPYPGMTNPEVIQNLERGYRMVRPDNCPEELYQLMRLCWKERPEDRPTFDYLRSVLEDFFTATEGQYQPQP
Procedure, shortened: as §1

DNA-PK(h) = target: T7, DNA-PK(h) (Homo sapiens, UniProt P78527)
T7 construct: gene PRKDC
Procedure, shortened: as §1

Ret(h) = Ret(h) (Homo sapiens, UniProt P07949)
Procedure, shortened: as §1

IRE1(h) = target: T8, IRE1(h) (Homo sapiens, UniProt O75460)
T8 construct: gene ERN1
T8 sequence (O75460 whole entry): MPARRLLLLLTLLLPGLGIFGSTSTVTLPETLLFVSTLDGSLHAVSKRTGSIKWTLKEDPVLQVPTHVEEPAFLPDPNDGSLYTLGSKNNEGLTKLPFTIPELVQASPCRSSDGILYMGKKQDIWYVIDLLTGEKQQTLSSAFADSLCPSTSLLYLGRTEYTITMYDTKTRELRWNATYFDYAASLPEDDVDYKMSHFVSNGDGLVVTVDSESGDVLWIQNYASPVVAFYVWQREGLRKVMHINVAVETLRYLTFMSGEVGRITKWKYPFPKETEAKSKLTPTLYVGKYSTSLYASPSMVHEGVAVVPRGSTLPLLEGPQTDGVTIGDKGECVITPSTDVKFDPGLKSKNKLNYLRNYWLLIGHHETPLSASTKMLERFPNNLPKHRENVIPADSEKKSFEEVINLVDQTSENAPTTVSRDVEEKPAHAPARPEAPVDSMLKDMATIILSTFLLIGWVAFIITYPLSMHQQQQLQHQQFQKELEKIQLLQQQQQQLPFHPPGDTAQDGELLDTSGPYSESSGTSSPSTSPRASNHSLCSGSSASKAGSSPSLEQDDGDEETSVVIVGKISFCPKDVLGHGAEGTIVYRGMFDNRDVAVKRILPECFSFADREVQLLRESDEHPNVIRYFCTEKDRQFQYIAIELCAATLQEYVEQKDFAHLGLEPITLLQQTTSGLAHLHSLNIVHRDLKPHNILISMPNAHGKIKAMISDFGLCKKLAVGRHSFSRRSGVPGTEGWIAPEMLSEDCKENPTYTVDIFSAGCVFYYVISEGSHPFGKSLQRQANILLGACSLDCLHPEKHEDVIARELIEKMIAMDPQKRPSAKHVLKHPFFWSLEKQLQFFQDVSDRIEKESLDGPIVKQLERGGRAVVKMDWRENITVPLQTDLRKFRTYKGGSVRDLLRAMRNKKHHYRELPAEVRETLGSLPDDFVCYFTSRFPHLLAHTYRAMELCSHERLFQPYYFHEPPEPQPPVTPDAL
Procedure, shortened: as §1

[1] = read-out: Residual activity (%) Spautin-1 5aa
[2] = read-out: Residual activity (%) 5as
[3] = read-out: Residual activity (%) 5at
[4] = read-out: Residual activity (%) 5ay

Fc1ccc(CNc2ncnc3ccc(F)cc23)cc1 [5aa, 6-Fluoro-N-(4-fluorobenzyl)-4-Quinazolinamine]
remaining activity at 10 µM (TSSK3(h); [1]): 111% | remaining activity at 10 µM (Mnk2(h); [1]): 93% | remaining activity at 10 µM (PKCθ(h); [1]): 80% | remaining activity at 10 µM (WNK2(h); [1]): 77% | remaining activity at 10 µM (SIK(h); [1]): 98% | remaining activity at 10 µM (TLK2(h); [1]): 99% | remaining activity at 10 µM (ICK(h); [1]): 97% | remaining activity at 10 µM (WNK4(h); [1]): 105% | remaining activity at 10 µM (IRR(h); [1]): 93% | remaining activity at 10 µM (CDK12/cyclinK(h); [1]): 84% | remaining activity at 10 µM (Lck(h) activated; [1]): 93% | remaining activity at 10 µM (DNA-PK(h); [1]): 89% | remaining activity at 10 µM (Ret(h); [1]): 69% | remaining activity at 10 µM (IRE1(h); [1]): 99%

Fc1ccc(CCNc2ncnc3ccc(F)cc23)cc1 [5as, 6-Fluoro-N-[2-(4-Fluorophenyl)Ethyl]-4-Quinazolinamine]
remaining activity at 10 µM (TSSK3(h); [2]): 97% | remaining activity at 10 µM (Mnk2(h); [2]): 83% | remaining activity at 10 µM (PKCθ(h); [2]): 100% | remaining activity at 10 µM (WNK2(h); [2]): 74% | remaining activity at 10 µM (SIK(h); [2]): 90% | remaining activity at 10 µM (TLK2(h); [2]): 98% | remaining activity at 10 µM (ICK(h); [2]): 90% | remaining activity at 10 µM (WNK4(h); [2]): 94% | remaining activity at 10 µM (IRR(h); [2]): 87% | remaining activity at 10 µM (CDK12/cyclinK(h); [2]): 72% | remaining activity at 10 µM (Lck(h) activated; [2]): 100% | remaining activity at 10 µM (DNA-PK(h); [2]): 74% | remaining activity at 10 µM (Ret(h); [2]): 99% | remaining activity at 10 µM (IRE1(h); [2]): 89%

Fc1ccc2ncnc(NCCc3ccc(Cl)cc3)c2c1 [5at, N-[2-(4-Chlorophenyl)Ethyl]-6-Fluoro-4-Quinazolinamine]
remaining activity at 10 µM (TSSK3(h); [3]): 95% | remaining activity at 10 µM (Mnk2(h); [3]): 80% | remaining activity at 10 µM (PKCθ(h); [3]): 90% | remaining activity at 10 µM (WNK2(h); [3]): 76% | remaining activity at 10 µM (SIK(h); [3]): 86% | remaining activity at 10 µM (TLK2(h); [3]): 103% | remaining activity at 10 µM (ICK(h); [3]): 88% | remaining activity at 10 µM (WNK4(h); [3]): 92% | remaining activity at 10 µM (IRR(h); [3]): 79% | remaining activity at 10 µM (CDK12/cyclinK(h); [3]): 93% | remaining activity at 10 µM (Lck(h) activated; [3]): 91% | remaining activity at 10 µM (DNA-PK(h); [3]): 85% | remaining activity at 10 µM (Ret(h); [3]): 62% | remaining activity at 10 µM (IRE1(h); [3]): 88%

COc1ccc2ncnc(Nc3cccc(F)c3)c2c1 [5ay, N-(3-Fluorophenyl)-6-Methoxy-4-Quinazolinamine]
remaining activity at 10 µM (TSSK3(h); [4]): 104% | remaining activity at 10 µM (Mnk2(h); [4]): 19% | remaining activity at 10 µM (PKCθ(h); [4]): 117% | remaining activity at 10 µM (WNK2(h); [4]): 71% | remaining activity at 10 µM (SIK(h); [4]): 74% | remaining activity at 10 µM (TLK2(h); [4]): 97% | remaining activity at 10 µM (ICK(h); [4]): 92% | remaining activity at 10 µM (WNK4(h); [4]): 100% | remaining activity at 10 µM (IRR(h); [4]): 99% | remaining activity at 10 µM (CDK12/cyclinK(h); [4]): 69% | remaining activity at 10 µM (Lck(h) activated; [4]): 73% | remaining activity at 10 µM (DNA-PK(h); [4]): 72% | remaining activity at 10 µM (Ret(h); [4]): 43% | remaining activity at 10 µM (IRE1(h); [4]): 83%
